In patent publication US8952024B2, “Herbicidal pyrimidone derivatives” (E I du Pont de Nemours and Company, priority 2009, dated 2015):

How the values were obtained:
Assay in all cases: Test B pre-/postemergence plant response
Format in all cases: in vivo
[1] = test system: downy bromegrass (Bromus tectorum); details: for Bromegrass, Downy plant response rating (0 to 100 scale): 0 is no effect
Outline: (§1)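 Steps: sow seed in loam–sand soil and spray preemergence, or grow plants in peat-based medium to 1–4 leaves (2–18 cm) and spray postemergence; formulation is non-phytotoxic solvent plus surfactant; hold in greenhouse 13–15 days; score visually vs controls, 0 = no effect, 100 = complete control.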

[2] = test system: cocklebur (Xanthium strumarium)
Outline: as §1

[3] = test system: Surinam grass (Brachiaria decumbens)
Outline: as §1

[4] = test system: ragweed (common ragweed, Ambrosia elatior)
Outline: as §1

[5] = test system: wild oat (Avena fatua)
Outline: as §1

[6] = test system: kochia (Kochia scoparia)
Outline: as §1

[7] = test system: large crabgrass (Digitaria sanguinalis)
Outline: as §1

[8] = test system: Italian ryegrass (Lolium multiflorum)
Outline: as §1

[9] = test system: wheat (Triticum aestivum)
Outline: as §1

[10] = test system: woolly cupgrass (Eriochloa villosa)
Outline: as §1

[11] = test system: morningglory (Ipomoea coccinea)
Outline: as §1

[12] = test system: bermudagrass (Cynodon dactylon); details: for Bermudagrass plant response rating (0 to 100 scale): 0 is no effect
Outline: as §1

[13] = test system: blackgrass (Alopecurus myosuroides); details: for Blackgrass plant response rating (0 to 100 scale): 0 is no effect
Outline: as §1

[14] = 31 g ai/ha, postemergence, scale 0 to 100, 0 is no effect, 100 is complete control
[15] = 62 g ai/ha, postemergence, 100 is complete control, 13 to 15 days
[16] = Postemergence, 125 g ai/ha, scale 0 to 100 (0 no effect, 100 complete control)
[17] = Postemergence, 250 g ai/ha, scale 0 to 100 (0 no effect, 100 complete control)
[18] = Preemergence, 31 g ai/ha, scale 0 to 100 (0 no effect, 100 complete control)
[19] = Preemergence, 62 g ai/ha, scale 0 to 100 (0 no effect, 100 complete control)
[20] = Preemergence, 125 g ai/ha, scale 0 to 100, 0 no effect, 100 complete control
[21] = Preemergence, 250 g ai/ha, 0 to 100 scale
[22] = 62 g ai/ha, postemergence, 0 is no effect, 100 is complete control, 13 to 15 days
[23] = Postemergence, 31 g ai/ha, 0 to 100 scale (0 no effect, 100 complete control)
[24] = Postemergence, 250 g ai/ha, scale 0 to 100 (0 no effect, 100 complete control), 13 to 15 days

## COCCCn1c(-c2cc(F)cc(F)c2)ncc(C(=O)C2=C(O)CCCC2=O)c1=O [Compound 120]
[1]; [14]
  Plant response rating, Bromegrass, Downy: 20
[1]; [15]
  Bromegrass, Downy plant response rating (0 to 100 scale): 60
[1]; [16]
  Plant response rating, Bromegrass, Downy: 60
[1]; [17]
  Plant response rating, Bromegrass, Downy: 80
[1]; [18]
  Plant response rating, Bromegrass, Downy: 10
[1]; [19]
  Plant response rating, Bromegrass, Downy: 30
[1]; [20]
  Plant response rating, Bromegrass, Downy: 30
[1]; [21]
  Bromegrass, Downy plant response rating: 85
[2]; [14]
  Plant response rating, Cocklebur: 10
[2]; [22]
  Cocklebur plant response rating (0 to 100 scale): 15
[2]; [16]
  Plant response rating, Cocklebur: 25
[2]; [17]
  Plant response rating, Cocklebur: 80
[2]; [18]
  Plant response rating, Cocklebur: 0
[2]; [19]
  Plant response rating, Cocklebur: 35
[2]; [20]
  Plant response rating, Cocklebur: 60
[2]; [21]
  Cocklebur plant response rating: 98
[3]; [22]
  Surinam Grass plant response rating (0 to 100 scale): 85
[3]; [16]
  Plant response rating, Surinam Grass: 100
[3]; [17]
  Plant response rating, Surinam Grass: 100
[3]; [18]
  Plant response rating, Surinam Grass: 100
[3]; [19]
  Plant response rating, Surinam Grass: 100
[3]; [20]
  Plant response rating, Surinam Grass: 100
[3]; [21]
  Surinam Grass plant response rating: 100
[4]; [22]
  Ragweed plant response rating (0 to 100 scale): 75
[4]; [16]
  Plant response rating, Ragweed: 75
[4]; [17]
  Plant response rating, Ragweed: 80
[4]; [18]
  Plant response rating, Ragweed: 80
[4]; [19]
  Plant response rating, Ragweed: 80
[4]; [20]
  Plant response rating, Ragweed: 95
[4]; [21]
  Ragweed plant response rating: 95
[5]; [14]
  Plant response rating, Oat, Wild: 50
[5]; [22]
  Oat, Wild plant response rating (0 to 100 scale): 80
[5]; [16]
  Plant response rating, Oat, Wild: 80
[5]; [17]
  Plant response rating, Oat, Wild: 95
[5]; [18]
  Plant response rating, Oat, Wild: 0
[5]; [19]
  Plant response rating, Oat, Wild: 10
[5]; [20]
  Plant response rating, Oat, Wild: 65
[5]; [21]
  Oat, Wild plant response rating: 65
[6]; [14]
  Plant response rating, Kochia: 10
[6]; [22]
  Kochia plant response rating (0 to 100 scale): 40
[6]; [16]
  Plant response rating, Kochia: 80
[6]; [17]
  Plant response rating, Kochia: 98
[6]; [18]
  Plant response rating, Kochia: 0
[6]; [19]
  Plant response rating, Kochia: 20
[6]; [20]
  Plant response rating, Kochia: 50
[6]; [21]
  Kochia plant response rating: 75
[7]; [14]
  Plant response rating, Crabgrass, Large: 80
[7]; [22]
  Crabgrass, Large plant response rating (0 to 100 scale): 85
[7]; [16]
  Plant response rating, Crabgrass, Large: 95
[7]; [17]
  Plant response rating, Crabgrass, Large: 98
[7]; [18]
  Plant response rating, Crabgrass, Large: 98
[7]; [19]
  Plant response rating, Crabgrass, Large: 100
[7]; [20]
  Plant response rating, Crabgrass, Large: 100
[7]; [21]
  Crabgrass, Large plant response rating: 100
[8]; [22]
  Ryegrass, Italian plant response rating (0 to 100 scale): 40
[8]; [16]
  Plant response rating, Ryegrass, Italian: 60
[8]; [17]
  Plant response rating, Ryegrass, Italian: 80
[8]; [18]
  Plant response rating, Ryegrass, Italian: 100
[8]; [19]
  Plant response rating, Ryegrass, Italian: 100
[8]; [20]
  Plant response rating, Ryegrass, Italian: 100
[8]; [21]
  Ryegrass, Italian plant response rating: 100
[9]; [22]
  Wheat plant response rating (0 to 100 scale): 40
[9]; [16]
  Plant response rating, Wheat: 60
[9]; [18]
  Plant response rating, Wheat: 0
[9]; [19]
  Plant response rating, Wheat: 0
[9]; [20]
  Plant response rating, Wheat: 25
[9]; [21]
  Wheat plant response rating: 30
[10]; [14]
  Plant response rating, Cupgrass, Woolly: 70
[10]; [22]
  Cupgrass, Woolly plant response rating (0 to 100 scale): 75
[10]; [16]
  Plant response rating, Cupgrass, Woolly: 100
[10]; [17]
  Plant response rating, Cupgrass, Woolly: 100
[10]; [18]
  Plant response rating, Cupgrass, Woolly: 50
[10]; [19]
  Plant response rating, Cupgrass, Woolly: 70
[10]; [20]
  Plant response rating, Cupgrass, Woolly: 75
[10]; [21]
  Cupgrass, Woolly plant response rating: 90
[11]; [14]
  Plant response rating, Morningglory: 15
[11]; [22]
  Morningglory plant response rating (0 to 100 scale): 50
[11]; [16]
  Plant response rating, Morningglory: 80
[11]; [17]
  Plant response rating, Morningglory: 90
[11]; [18]
  Plant response rating, Morningglory: 0
[11]; [19]
  Plant response rating, Morningglory: 90
[11]; [20]
  Plant response rating, Morningglory: 90
[11]; [21]
  Morningglory plant response rating: 100
[12]; [14]
  Plant response rating, Bermudagrass: 80
[12]; [15]
  Bermudagrass plant response rating (0 to 100 scale): 95
[12]; [16]
  Plant response rating, Bermudagrass: 98
[12]; [17]
  Plant response rating, Bermudagrass: 98
[12]; [18]
  Plant response rating, Bermudagrass: 100
[12]; [19]
  Plant response rating, Bermudagrass: 100
[12]; [20]
  Plant response rating, Bermudagrass: 100
[12]; Preemergence, 250 g ai/ha, 0 to 100 scale, 0 no effect, 100 complete control
  Bermudagrass plant response rating: 100
[13]; [14]
  Plant response rating, Blackgrass: 30
[13]; [15]
  Blackgrass plant response rating (0 to 100 scale): 30
[13]; [16]
  Plant response rating, Blackgrass: 60
[13]; [17]
  Plant response rating, Blackgrass: 60
[13]; [18]
  Plant response rating, Blackgrass: 5
[13]; [19]
  Plant response rating, Blackgrass: 50
[13]; [20]
  Plant response rating, Blackgrass: 50
[13]; [21]
  Blackgrass plant response rating: 50

## O=C1CCCC(O)=C1C(=O)c1cnc(-c2cccs2)n(C2CCCCC2)c1=O [Compound 189]
[1]; [15]
  Bromegrass, Downy plant response rating (0 to 100 scale): 5
[1]; [23]
  Plant response rating, Bromegrass, Downy: 0
[1]; [16]
  Plant response rating, Bromegrass, Downy: 5
[1]; [24]
  Plant response rating, Bromegrass, Downy: 10
[2]; [23]
  Plant response rating, Cocklebur: 60
[2]; [16]
  Plant response rating, Cocklebur: 100
[2]; [24]
  Plant response rating, Cocklebur: 100
[3]; [23]
  Plant response rating, Surinam Grass: 65
[3]; [16]
  Plant response rating, Surinam Grass: 80
[3]; [24]
  Plant response rating, Surinam Grass: 85
[4]; [23]
  Plant response rating, Ragweed: 10
[4]; [16]
  Plant response rating, Ragweed: 75
[4]; [24]
  Plant response rating, Ragweed: 80
[5]; [23]
  Plant response rating, Oat, Wild: 5
[5]; [16]
  Plant response rating, Oat, Wild: 10
[5]; [24]
  Plant response rating, Oat, Wild: 25
[6]; [23]
  Plant response rating, Kochia: 85
[6]; [16]
  Plant response rating, Kochia: 98
[6]; [24]
  Plant response rating, Kochia: 100
[7]; [23]
  Plant response rating, Crabgrass, Large: 75
[7]; [16]
  Plant response rating, Crabgrass, Large: 95
[7]; [24]
  Plant response rating, Crabgrass, Large: 100
[8]; [23]
  Plant response rating, Ryegrass, Italian: 0
[8]; [16]
  Plant response rating, Ryegrass, Italian: 5
[8]; [24]
  Plant response rating, Ryegrass, Italian: 5
[9]; [23]
  Plant response rating, Wheat: 0
[9]; [16]
  Plant response rating, Wheat: 0
[9]; [24]
  Plant response rating, Wheat: 0
[10]; [23]
  Plant response rating, Cupgrass, Woolly: 70
[10]; [16]
  Plant response rating, Cupgrass, Woolly: 75
[10]; [24]
  Plant response rating, Cupgrass, Woolly: 80
[11]; [23]
  Plant response rating, Morningglory: 100
[11]; [16]
  Plant response rating, Morningglory: 100
[11]; [24]
  Plant response rating, Morningglory: 100
[12]; [15]
  Bermudagrass plant response rating (0 to 100 scale): 15
[12]; [23]
  Plant response rating, Bermudagrass: 10
[12]; [16]
  Plant response rating, Bermudagrass: 65
[12]; [24]
  Plant response rating, Bermudagrass: 70
[13]; [15]
  Blackgrass plant response rating (0 to 100 scale): 0
[13]; [23]
  Plant response rating, Blackgrass: 0
[13]; [16]
  Plant response rating, Blackgrass: 5
[13]; [24]
  Plant response rating, Blackgrass: 5
